Values of other authors, collected in patent US6951877B2, “Materials and methods for treating hypercholesterolemia” (ARYx Therapeutics, Inc., priority 2002, dated 2005).
Read-outs that look alike come from different tables or passages of the source. One block for each molecule: values may come before it.

Key:
patients [1] = test system: patients
patients [2] = test system: patients; remark: listed apart in the source
[3] = test system: asymptomatic, middle-aged men with primary hypercholesterolemia

patients with elevated liver enzymes (patients [1]; 40 mg): 0.6%
patients with elevated liver enzymes (patients [1]; 80 mg): 2.3%
patients with elevated liver enzymes (patients [1]; doses of 10 or 20 mg): 0.2%
SMILES: CC(C)c1c(C(=O)Nc2ccccc2)c(-c2ccccc2)c(-c2ccc(F)cc2)n1CC[C@@H](O)C[C@@H](O)CC(=O)O [atorvastatin]

SMILES: COCc1c(C(C)C)nc(C(C)C)c(/C=C/[C@@H](O)C[C@@H](O)CC(=O)O)c1-c1ccc(F)cc1 [cerivastatin]
U.S. deaths due to severe rhabdomyolysis reported to FDA (patients [2]; all reports associated with use of cerivastatin): 31
U.S. deaths due to severe rhabdomyolysis reported to FDA (patients [2]; concomitant gemfibrozil use): 12

SMILES: Cc1ccc(C)c(OCCCC(C)(C)C(=O)O)c1 [gemfibrozil]
reduction in CHD risk ([3]; over the 5-year follow-up period): 34%
HDL cholesterol ([3]; treatment with gemfibrozil): increased HDL cholesterol
LDL cholesterol ([3]; treatment with gemfibrozil): lowered LDL, cholesterol
